Measured values from PubChem BioAssay AID1259407 (Chemical Carcinogenesis Research Information System (CCRIS), 2018).
Active and inactive are the calls of the source. No rule for the calls is given here.

Test system: CCRIS mutagenicity, Ames/micronucleus/aberration tests
Test: CCRIS mutagenicity studies

In the case of C#C[C@]1(O)CC[C@H]2[C@@H]3CCC4=CC(=O)CC[C@@H]4[C@H]3CC[C@@]21C, the mutagenic call (End Point: IN VITRO CHROMOSOMAL ABERRATIONS, Test System: HUMAN LYMPHOCYTES, Metabolic Activation: NONE) is reported as “inactive; negative”, the mutagenic call (End Point: IN VITRO CHROMOSOMAL ABERRATIONS, Test System: HUMAN LYMPHOCYTES, Metabolic Activation: RAT, LIVER, S-9, PHENOBARBITONE) is reported as “inactive; negative” and the mutagenic call (End Point: IN VIVO MICRONUCLEUS, Test System: HEPATOCYTES, Species: RAT, Strain/Sex: SPRAGUE-DAWLEY/FEMALE, Route: INTRAGASTRIC (GAVAGE)) is reported as “inactive; negative (nonstatistically significant increase)”. The mutagenic call (Test System: AMES SALMONELLA TYPHIMURIUM, Strain/Indicator: TA98, Metabolic Activation: NONE) was “inactive; negative”, the mutagenic call (Test System: AMES SALMONELLA TYPHIMURIUM, Strain/Indicator: TA98, Metabolic Activation: NONE, Method: PREINCUBATION) was “inactive; negative” and the mutagenic call (Test System: AMES SALMONELLA TYPHIMURIUM, Strain/Indicator: TA98, Metabolic Activation: NONE, Method: STANDARD PLATE) was “inactive; negative”. For the same molecule, the mutagenic call (Test System: AMES SALMONELLA TYPHIMURIUM, Strain/Indicator: TA98, Metabolic Activation: RAT, LIVER, S-9, AROCLOR 1254, Method: PREINCUBATION) was “inactive; negative”, the mutagenic call (Test System: AMES SALMONELLA TYPHIMURIUM, Strain/Indicator: TA98, Metabolic Activation: RAT, LIVER, S-9, AROCLOR 1254, Method: STANDARD PLATE) was “inactive; negative” and the mutagenic call (Test System: AMES SALMONELLA TYPHIMURIUM, Strain/Indicator: TA98, Metabolic Activation: S-9) was “inactive; negative”. The mutagenic call (Test System: AMES SALMONELLA TYPHIMURIUM, Strain/Indicator: TA100, Metabolic Activation: NONE) was “inactive; negative”, the mutagenic call (Test System: AMES SALMONELLA TYPHIMURIUM, Strain/Indicator: TA100, Metabolic Activation: NONE, Method: PREINCUBATION) was “inactive; negative” and the mutagenic call (Test System: AMES SALMONELLA TYPHIMURIUM, Strain/Indicator: TA100, Metabolic Activation: NONE, Method: STANDARD PLATE) was “inactive; negative”. The mutagenic call (Test System: AMES SALMONELLA TYPHIMURIUM, Strain/Indicator: TA100, Metabolic Activation: RAT, LIVER, S-9, AROCLOR 1254, Method: PREINCUBATION) was “inactive; negative”, the mutagenic call (Test System: AMES SALMONELLA TYPHIMURIUM, Strain/Indicator: TA100, Metabolic Activation: RAT, LIVER, S-9, AROCLOR 1254, Method: STANDARD PLATE) was “inactive; negative” and the mutagenic call (Test System: AMES SALMONELLA TYPHIMURIUM, Strain/Indicator: TA100, Metabolic Activation: S-9) was “inactive; negative”. The mutagenic call (Test System: AMES SALMONELLA TYPHIMURIUM, Strain/Indicator: TA1535, Metabolic Activation: NONE) was “inactive; negative”, the mutagenic call (Test System: AMES SALMONELLA TYPHIMURIUM, Strain/Indicator: TA1535, Metabolic Activation: NONE, Method: PREINCUBATION) was “inactive; negative” and the mutagenic call (Test System: AMES SALMONELLA TYPHIMURIUM, Strain/Indicator: TA1535, Metabolic Activation: NONE, Method: STANDARD PLATE) was “inactive; negative”. For the same molecule, the mutagenic call (Test System: AMES SALMONELLA TYPHIMURIUM, Strain/Indicator: TA1535, Metabolic Activation: RAT, LIVER, S-9, AROCLOR 1254, Method: PREINCUBATION) was “inactive; negative”, the mutagenic call (Test System: AMES SALMONELLA TYPHIMURIUM, Strain/Indicator: TA1535, Metabolic Activation: RAT, LIVER, S-9, AROCLOR 1254, Method: STANDARD PLATE) was “inactive; negative” and the mutagenic call (Test System: AMES SALMONELLA TYPHIMURIUM, Strain/Indicator: TA1535, Metabolic Activation: S-9) was “inactive; negative”. The mutagenic call (Test System: AMES SALMONELLA TYPHIMURIUM, Strain/Indicator: TA1537, Metabolic Activation: NONE) was “inactive; negative”, the mutagenic call (Test System: AMES SALMONELLA TYPHIMURIUM, Strain/Indicator: TA1537, Metabolic Activation: NONE, Method: PREINCUBATION) was “inactive; negative” and the mutagenic call (Test System: AMES SALMONELLA TYPHIMURIUM, Strain/Indicator: TA1537, Metabolic Activation: NONE, Method: STANDARD PLATE) was “inactive; negative”. The mutagenic call (Test System: AMES SALMONELLA TYPHIMURIUM, Strain/Indicator: TA1537, Metabolic Activation: RAT, LIVER, S-9, AROCLOR 1254, Method: PREINCUBATION) was “inactive; negative”, the mutagenic call (Test System: AMES SALMONELLA TYPHIMURIUM, Strain/Indicator: TA1537, Metabolic Activation: RAT, LIVER, S-9, AROCLOR 1254, Method: STANDARD PLATE) was “inactive; negative” and the mutagenic call (Test System: AMES SALMONELLA TYPHIMURIUM, Strain/Indicator: TA1537, Metabolic Activation: S-9) was “inactive; negative”. For the same molecule, the mutagenic call (Test System: AMES SALMONELLA TYPHIMURIUM, Strain/Indicator: TA1538, Metabolic Activation: NONE, Method: PREINCUBATION) was “inactive; negative”, the mutagenic call (Test System: AMES SALMONELLA TYPHIMURIUM, Strain/Indicator: TA1538, Metabolic Activation: NONE, Method: STANDARD PLATE) was “inactive; negative” and the mutagenic call (Test System: AMES SALMONELLA TYPHIMURIUM, Strain/Indicator: TA1538, Metabolic Activation: RAT, LIVER, S-9, AROCLOR 1254, Method: PREINCUBATION) was “inactive; negative”. For the same molecule, the mutagenic call (Test System: AMES SALMONELLA TYPHIMURIUM, Strain/Indicator: TA1538, Metabolic Activation: RAT, LIVER, S-9, AROCLOR 1254, Method: STANDARD PLATE) was “inactive; negative”, the mutagenic call (Test System: E. COLI, Strain/Indicator: WP2 UVRA, Metabolic Activation: NONE) was “inactive; negative” and the mutagenic call (Test System: E. COLI, Strain/Indicator: WP2 UVRA, Metabolic Activation: S-9) was “inactive; negative”.

In the case of C#CC, the mutagenic call (End Point: IN VITRO CHROMOSOMAL ABERRATIONS, Test System: CHL CELLS, Metabolic Activation: RAT, LIVER, S-9, SODIUM PHENOBARBITAL AND 5,6-BENZOFLAVONE) is reported as “inactive; negative; authors report equivocal results for structural changes at the highest”, the mutagenic call (Test System: AMES SALMONELLA TYPHIMURIUM, Strain/Indicator: TA98, Metabolic Activation: NONE, Method: GAS EXPOSURE) is reported as “inactive; negative” and the mutagenic call (Test System: AMES SALMONELLA TYPHIMURIUM, Strain/Indicator: TA98, Metabolic Activation: RAT LIVER S-9, PHENOBARBITAL AND BETA-NAPHTHOFLAVONE (40%), Method: GAS EXPOSURE) is reported as “inactive; negative”. For the same molecule, the mutagenic call (Test System: AMES SALMONELLA TYPHIMURIUM, Strain/Indicator: TA98, Metabolic Activation: RAT, LIVER, S-9, PHENOBARBITAL AND 5,6-BENZOFLAVONE, Method: GAS EXPOSURE) was “inactive; negative”, the mutagenic call (Test System: AMES SALMONELLA TYPHIMURIUM, Strain/Indicator: TA100, Metabolic Activation: NONE, Method: GAS EXPOSURE) was “inactive; negative” and the mutagenic call (Test System: AMES SALMONELLA TYPHIMURIUM, Strain/Indicator: TA100, Metabolic Activation: RAT LIVER S-9, PHENOBARBITAL AND BETA-NAPHTHOFLAVONE (40%), Method: GAS EXPOSURE) was “inactive; negative”. For the same molecule, the mutagenic call (Test System: AMES SALMONELLA TYPHIMURIUM, Strain/Indicator: TA100, Metabolic Activation: RAT, LIVER, S-9, PHENOBARBITAL AND 5,6-BENZOFLAVONE, Method: GAS EXPOSURE) was “inactive; negative”, the mutagenic call (Test System: AMES SALMONELLA TYPHIMURIUM, Strain/Indicator: TA1535, Metabolic Activation: NONE, Method: GAS EXPOSURE) was “inactive; negative” and the mutagenic call (Test System: AMES SALMONELLA TYPHIMURIUM, Strain/Indicator: TA1535, Metabolic Activation: RAT LIVER S-9, PHENOBARBITAL AND BETA-NAPHTHOFLAVONE (40%), Method: GAS EXPOSURE) was “inactive; negative”. For the same molecule, the mutagenic call (Test System: AMES SALMONELLA TYPHIMURIUM, Strain/Indicator: TA1535, Metabolic Activation: RAT, LIVER, S-9, PHENOBARBITAL AND 5,6-BENZOFLAVONE, Method: GAS EXPOSURE) was “inactive; negative”, the mutagenic call (Test System: AMES SALMONELLA TYPHIMURIUM, Strain/Indicator: TA1537, Metabolic Activation: NONE, Method: GAS EXPOSURE) was “inactive; negative” and the mutagenic call (Test System: AMES SALMONELLA TYPHIMURIUM, Strain/Indicator: TA1537, Metabolic Activation: RAT LIVER S-9, PHENOBARBITAL AND BETA-NAPHTHOFLAVONE (40%), Method: GAS EXPOSURE) was “inactive; negative”. For the same molecule, the mutagenic call (Test System: AMES SALMONELLA TYPHIMURIUM, Strain/Indicator: TA1537, Metabolic Activation: RAT, LIVER, S-9, PHENOBARBITAL AND 5,6-BENZOFLAVONE, Method: GAS EXPOSURE) was “inactive; negative”, the mutagenic call (Test System: E. COLI, Strain/Indicator: WP2 UVRA, Metabolic Activation: NONE, Method: GAS EXPOSURE) was “active; positive” and the mutagenic call (Test System: E. COLI, Strain/Indicator: WP2 UVRA, Metabolic Activation: RAT, LIVER, S-9, PHENOBARBITAL AND 5,6-BENZOFLAVONE, Method: GAS EXPOSURE) was “active; positive”. The mutagenic call (Test System: E.COLI, Strain/Indicator: WP2UVRA, Metabolic Activation: NONE, Method: GAS EXPOSURE) was “active; positive” and the mutagenic call (Test System: E.COLI, Strain/Indicator: WP2UVRA, Metabolic Activation: RAT LIVER S-9, PHENOBARBITAL AND BETA-NAPHTHOFLAVONE (40%), Method: GAS EXPOSURE) was “active; positive”.
